The results in this text go back to ChEMBL document CHEMBL4190267, “Discovery of potent molecular chimera (CM358) to treat human metastatic melanoma” (Eur J Med Chem, 2017).

Calls of active or inactive are those of the source. No cut-off for these calls is given here. Where only a bound is given, the exact number is not on record here.

Data set [1] deals with MDA-MB-231. The experiment in a line: Growth inhibition of human MDA-MB-231 cells preincubated for 6 hrs cotreated with chlorambucil followed compound washout measured after 24 hrs by XTT assay. The format is functional. For orientation: Tetrazolium assays rely on reduction of a dye to a coloured formazan, in cell work by metabolically active cells.
Data set [2] concerns Mus musculus. The data set can be described thus: Toxicity in athymic Foxn1 nu mouse xenografted with human WM266.4 cells assessed as body weight loss at 10 mg/kg, ip cotreated with chlorambucil administered once daily for 7 days followed by resting period of 2 days repeated for 4 weeks starting from 5 days post tumor inoculation. It counts as organism-based. As to conditions: in vivo. In general terms: A xenograft is tissue or cells of one species grown in another, often human tumour cells in immunodeficient mice.

Data set [3] relates to WM 266-4. The data set can be described thus: Cell cycle arrest in human WM266.4 cells assessed as accumulation at G2 phase at 10 uM cotreated with chlorambucil after 24 hrs by propidium iodide staining based flow cytometry (reference value: 11%). The format is functional. In general terms: A flow cytometer gives signals particle by particle.
Data set [4] concerns WM 266-4. The data set can be described thus: Growth inhibition of human WM266.4 cells preincubated for 6 hrs cotreated with chlorambucil followed compound washout measured after 24 hrs by XTT assay. The format is functional.
Data set [5] has as its system PC-3. The data set can be described thus: Growth inhibition of human PC3 cells preincubated for 6 hrs followed compound washout measured after 24 hrs by XTT assay. The format is functional.
Data set [6] addresses DNA topoisomerase 2-alpha (Homo sapiens) (UniProt P11388). The data set can be described thus: Inhibition of human topoisomerase-2alpha assessed as reduction in enzyme-mediated decatenation at 25 uM using kinetoplast DNA as substrate after 25 mins by ethidium bromide staining based agarose gel electrophoresis method.
The test system of data set [7] is WM 266-4. The experiment in a line: Cell cycle arrest in human WM266.4 cells assessed as accumulation at G2 phase at 10 uM cotreated with chlorambucil after 8 hrs by propidium iodide staining based flow cytometry (reference value: 11%). It counts as functional.
The test system of data set [8] is WM 266-4. The experiment in a line: Cell cycle arrest in human WM266.4 cells assessed as accumulation at G1 phase at 10 uM cotreated with chlorambucil after 2 hrs by propidium iodide staining based flow cytometry (reference value: 59%). It counts as functional.
Data set [9] deals with WM 266-4. The data set can be described thus: Antitumor activity against human WM266.4 cells xenografted in athymic Foxn1 nu mouse assessed as tumor growth inhibition at 10 mg/kg, ip cotreated with chlorambucil administered once daily for 7 days followed by resting period of 2 days repeated for 4 weeks starting from 5 days post tumor inoculation. The format is functional, organism-based.

The subject of data set [10] is NCI-H1299. The experiment in a line: Growth inhibition of human NCI-H1299 cells preincubated for 6 hrs followed compound washout measured after 24 hrs by XTT assay. The format is functional.
Data set [11] relates to Mus musculus. The experiment in a line: Toxicity in athymic Foxn1 nu mouse xenografted with human WM266.4 cells assessed as body weight loss at 10 mg/kg, ip cotreated with chlorambucil administered once daily for 3 days followed by resting period of 4 days repeated for 4 weeks starting from 5 days post tumor inoculation. It counts as organism-based. As to conditions: in vivo.

For data set [12], the system named is WM 266-4. The data set can be described thus: Cell cycle arrest in human WM266.4 cells assessed as accumulation at G2 phase at 10 uM cotreated with chlorambucil after 2 hrs by propidium iodide staining based flow cytometry (reference value: 11%). The format is functional.
In data set [13] the test system is A 172. The data set can be described thus: Growth inhibition of human A172 cells preincubated for 6 hrs cotreated with chlorambucil followed compound washout measured after 24 hrs by XTT assay. It counts as functional.
Data set [14] concerns WM 266-4. The experiment in a line: Cell cycle arrest in human WM266.4 cells assessed as accumulation at S phase at 10 uM cotreated with chlorambucil after 8 hrs by propidium iodide staining based flow cytometry (reference value: 27%). It counts as functional.
For data set [15], the system named is WM 266-4. The data set can be described thus: Cell cycle arrest in human WM266.4 cells assessed as accumulation at G1 phase at 10 uM cotreated with chlorambucil after 24 hrs by propidium iodide staining based flow cytometry (reference value: 59%). The format is functional.
The test system of data set [16] is A 172. The data set can be described thus: Growth inhibition of human A172 cells preincubated for 6 hrs followed compound washout measured after 24 hrs by XTT assay. It counts as functional.
For data set [17], the system named is PC-3. The data set can be described thus: Growth inhibition of human PC3 cells preincubated for 6 hrs cotreated with chlorambucil followed compound washout measured after 24 hrs by XTT assay. The format is functional.
Data set [18] has as its target DNA topoisomerase 2-alpha (Homo sapiens) (UniProt P11388). The data set can be described thus: Inhibition of human topoisomerase-2alpha assessed as reduction in enzyme-mediated decatenation at 100 uM using kinetoplast DNA as substrate after 25 mins by ethidium bromide staining based agarose gel electrophoresis method.
Data set [19] concerns WM 266-4. The data set can be described thus: Antitumor activity against human WM266.4 cells xenografted in athymic Foxn1 nu mouse assessed as tumor growth inhibition at 10 mg/kg, ip cotreated with chlorambucil administered once daily for 3 days followed by resting period of 4 days repeated for 4 weeks starting from 5 days post tumor inoculation. The format is functional, organism-based.

Data set [20] concerns WM 266-4. The experiment in a line: Growth inhibition of human WM266.4 cells preincubated for 6 hrs followed compound washout measured after 24 hrs by XTT assay. It counts as functional.
Data set [21] concerns WM 266-4. The data set can be described thus: Cell cycle arrest in human WM266.4 cells assessed as accumulation at G1 phase at 10 uM cotreated with chlorambucil after 8 hrs by propidium iodide staining based flow cytometry (reference value: 59%). The format is functional.
The test system of data set [22] is WM 266-4. The data set can be described thus: Cell cycle arrest in human WM266.4 cells assessed as accumulation at S phase at 10 uM cotreated with chlorambucil after 2 hrs by propidium iodide staining based flow cytometry (reference value: 27%). It counts as functional.
The subject of data set [23] is WM 266-4. The experiment in a line: Cell cycle arrest in human WM266.4 cells assessed as accumulation at S phase at 10 uM cotreated with chlorambucil after 24 hrs by propidium iodide staining based flow cytometry (reference value: 27%). The format is functional.
Data set [24] deals with MDA-MB-231. The data set can be described thus: Growth inhibition of human MDA-MB-231 cells preincubated for 6 hrs followed compound washout measured after 24 hrs by XTT assay. It counts as functional.
Data set [25] has as its system NCI-H1299. The experiment in a line: Growth inhibition of human NCI-H1299 cells preincubated for 6 hrs cotreated with chlorambucil followed compound washout measured after 24 hrs by XTT assay. It counts as functional.
The test system of data set [26] is PC-3. The experiment in a line: Growth inhibition of human PC3 cells up to 25 uM cotreated with colchicine measured after 24 hrs by XTT assay. The format is functional, cell-based.
The subject of data set [27] is NCI-H1299. The data set can be described thus: Growth inhibition of human NCI-H1299 cells up to 25 uM cotreated with colchicine measured after 24 hrs by XTT assay. It counts as functional, cell-based.
Data set [28] concerns A 172. The data set can be described thus: Growth inhibition of human A172 cells up to 25 uM cotreated with colchicine measured after 24 hrs by XTT assay. The format is functional, cell-based.
In data set [29] the test system is WM 266-4. The data set can be described thus: Growth inhibition of human WM266.4 cells up to 25 uM cotreated with colchicine measured after 24 hrs by XTT assay. It counts as functional, cell-based.
Data set [30] relates to MDA-MB-231. The data set can be described thus: Growth inhibition of human MDA-MB-231 cells up to 25 uM cotreated with colchicine measured after 24 hrs by XTT assay. The format is functional, cell-based.
For data set [31], the system named is PC-3. The data set can be described thus: Growth inhibition of human PC3 cells up to 25 uM measured after 24 hrs by XTT assay. The format is functional, cell-based.
The test system of data set [32] is A 172. The experiment in a line: Growth inhibition of human A172 cells up to 25 uM measured after 24 hrs by XTT assay. The format is functional, cell-based.
Data set [33] concerns WM 266-4. The experiment in a line: Growth inhibition of human WM266.4 cells up to 25 uM measured up to 96 hrs by XTT assay. It counts as functional, cell-based.
The test system of data set [34] is MDA-MB-231. The experiment in a line: Growth inhibition of human MDA-MB-231 cells up to 25 uM measured after 24 hrs by XTT assay. The format is functional, cell-based.
Data set [35] deals with WM 266-4. The data set can be described thus: Growth inhibition of human WM266.4 cells up to 25 uM measured after 24 hrs by XTT assay. The format is functional, cell-based.
Data set [36] deals with NCI-H1299. The experiment in a line: Growth inhibition of human NCI-H1299 cells up to 25 uM measured after 24 hrs by XTT assay. The format is functional, cell-based.

Chain of DNA topoisomerase 2-alpha (Homo sapiens) (P11388 whole entry): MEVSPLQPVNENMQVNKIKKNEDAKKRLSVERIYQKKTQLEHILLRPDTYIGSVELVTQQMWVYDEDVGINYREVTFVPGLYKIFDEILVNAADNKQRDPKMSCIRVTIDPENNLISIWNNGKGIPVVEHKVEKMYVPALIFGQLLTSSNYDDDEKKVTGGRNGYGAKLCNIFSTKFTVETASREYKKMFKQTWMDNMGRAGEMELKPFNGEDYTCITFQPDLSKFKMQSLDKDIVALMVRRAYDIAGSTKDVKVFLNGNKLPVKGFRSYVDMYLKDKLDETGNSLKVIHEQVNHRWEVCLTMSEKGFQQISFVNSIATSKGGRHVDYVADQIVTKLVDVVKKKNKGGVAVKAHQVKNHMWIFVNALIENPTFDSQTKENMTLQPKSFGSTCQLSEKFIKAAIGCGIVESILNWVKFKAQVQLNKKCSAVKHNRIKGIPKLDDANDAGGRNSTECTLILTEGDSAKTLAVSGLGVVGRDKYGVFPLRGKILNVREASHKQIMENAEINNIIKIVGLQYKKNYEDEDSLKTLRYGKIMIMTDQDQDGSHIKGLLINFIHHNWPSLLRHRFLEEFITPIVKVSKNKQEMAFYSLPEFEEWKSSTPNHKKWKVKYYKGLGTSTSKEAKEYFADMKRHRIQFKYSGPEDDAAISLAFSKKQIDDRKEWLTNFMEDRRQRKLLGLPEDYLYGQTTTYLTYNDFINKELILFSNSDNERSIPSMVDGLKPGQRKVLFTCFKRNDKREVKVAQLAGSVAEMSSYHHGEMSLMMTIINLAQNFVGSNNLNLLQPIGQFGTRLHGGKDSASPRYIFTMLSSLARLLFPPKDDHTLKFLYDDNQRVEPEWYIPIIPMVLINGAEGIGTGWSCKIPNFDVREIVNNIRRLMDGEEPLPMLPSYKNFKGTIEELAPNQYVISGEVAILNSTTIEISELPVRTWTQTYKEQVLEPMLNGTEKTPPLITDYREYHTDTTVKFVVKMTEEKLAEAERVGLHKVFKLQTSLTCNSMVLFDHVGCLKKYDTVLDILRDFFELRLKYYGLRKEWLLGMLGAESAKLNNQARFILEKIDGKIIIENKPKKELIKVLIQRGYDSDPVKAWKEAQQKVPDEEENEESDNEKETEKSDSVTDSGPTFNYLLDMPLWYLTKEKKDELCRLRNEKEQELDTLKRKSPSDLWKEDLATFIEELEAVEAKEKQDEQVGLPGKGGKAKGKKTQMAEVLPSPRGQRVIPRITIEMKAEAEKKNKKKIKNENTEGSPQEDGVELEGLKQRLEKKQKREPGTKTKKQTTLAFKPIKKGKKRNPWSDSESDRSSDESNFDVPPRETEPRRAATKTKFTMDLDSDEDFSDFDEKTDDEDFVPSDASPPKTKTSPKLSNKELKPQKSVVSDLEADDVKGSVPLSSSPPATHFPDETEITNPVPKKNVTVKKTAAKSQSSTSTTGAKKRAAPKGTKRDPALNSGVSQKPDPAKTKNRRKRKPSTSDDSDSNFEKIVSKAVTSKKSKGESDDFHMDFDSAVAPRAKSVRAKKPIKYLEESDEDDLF

The term GI50 denotes the concentration at which growth is held to half of that of the control. In the case of `CN(C)CCN1C(=O)c2cccc3cc(N)cc(c23)C1=O` [AMONAFIDE], the GI50 in [1], in data set [4], in [5], in data set [10], in data set [13] and in data set [16] was greater than 25 µM each time. Also, the GI50 in data set [17], in [20], in data set [24] and in [25] was greater than 25 µM each time. In addition, the Activity result in data set [2] is on record as “Toxic”; in data set [3], 26%; in data set [7], 23%; in data set [8], 63.5%; in data set [11] it was “Toxic”; in data set [12], 9.8%. Besides, the Activity in [14] turned out to be 44.7%; in data set [15], 35%; in data set [21], 29%; in data set [22], 26%; in data set [23] it was 39%. For the same molecule, in data set [6], the inhibition result was “inactive”. The TGI entry in data set [9] and in data set [19] was “inactive” throughout. Moreover, the inhibition entry in [18] is “Active”.

Consider `O=C(CCCc1ccc(N(CCCl)CCCl)cc1)Nc1ccn([C@@H]2O[C@H](CO)[C@@H](O)[C@@H]2O)c(=O)n1`, for which the “growth inhibition (GI)” value in data set [5], in data set [10], in data set [16], in [20] and in [24] was “inactive” in each case.

For `CC[C@@]1(O)C(=O)OCc2c1cc1n(c2=O)Cc2cc3ccccc3nc2-1`, the “growth inhibition (GI)” value in data set [26], in data set [27], in data set [28], in data set [29] and in data set [30] was “Active” in each case.

`CC[C@@]1(OC(=O)N[C@H]2CCc3cc(OC)c(OC)c(OC)c3-c3ccc(OC)c(=O)cc32)C(=O)OCc2c1cc1n(c2=O)Cc2cc3ccccc3nc2-1`: the “growth inhibition (GI)” value in [31], in data set [32], in [33], in data set [34], in [35] and in [36] was “inactive” in each case.
